Patent US12479847B2 (DANA-FARBER CANCER INSTITUTE, INC., priority 2019, dated 2025)

Experiments:
Assay in all cases: KINOMEscan (ScanMAX) kinase profiling
Type in all cases: binding
[1] = target: T1, panel of 468 kinases (Homo sapiens, UniProt O15111); settings: IKK-alpha; 1 μM; read-out: % control
T1 construct: purchased KINOMEscan (ScanMAX) service
T1 sequence (O15111 1-745): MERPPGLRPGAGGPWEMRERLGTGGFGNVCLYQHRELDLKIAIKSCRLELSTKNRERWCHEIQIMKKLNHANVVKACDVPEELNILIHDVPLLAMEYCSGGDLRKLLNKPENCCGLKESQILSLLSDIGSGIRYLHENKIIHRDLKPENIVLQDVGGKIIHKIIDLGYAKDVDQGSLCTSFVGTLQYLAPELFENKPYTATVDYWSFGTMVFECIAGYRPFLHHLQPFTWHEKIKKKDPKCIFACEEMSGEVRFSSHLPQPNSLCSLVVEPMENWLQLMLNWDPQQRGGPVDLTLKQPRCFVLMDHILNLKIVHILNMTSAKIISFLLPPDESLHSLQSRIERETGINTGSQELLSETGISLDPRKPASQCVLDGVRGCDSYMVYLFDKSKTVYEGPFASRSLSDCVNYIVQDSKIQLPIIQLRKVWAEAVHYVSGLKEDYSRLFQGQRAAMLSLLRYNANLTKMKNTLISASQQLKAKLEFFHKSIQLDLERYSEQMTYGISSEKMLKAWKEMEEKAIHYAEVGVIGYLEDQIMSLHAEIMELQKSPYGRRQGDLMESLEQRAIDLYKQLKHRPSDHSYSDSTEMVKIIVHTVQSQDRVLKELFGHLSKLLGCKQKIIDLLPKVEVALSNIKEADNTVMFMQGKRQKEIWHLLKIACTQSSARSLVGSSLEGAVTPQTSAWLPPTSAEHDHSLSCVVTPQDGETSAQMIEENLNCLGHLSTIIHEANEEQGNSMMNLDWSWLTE

[2] = target: T2, panel of 468 kinases (Homo sapiens, UniProt O94768); settings: DRAK2; 1 μM; read-out: % control
T2 construct: purchased KINOMEscan (ScanMAX) service
T2 sequence (O94768 1-372): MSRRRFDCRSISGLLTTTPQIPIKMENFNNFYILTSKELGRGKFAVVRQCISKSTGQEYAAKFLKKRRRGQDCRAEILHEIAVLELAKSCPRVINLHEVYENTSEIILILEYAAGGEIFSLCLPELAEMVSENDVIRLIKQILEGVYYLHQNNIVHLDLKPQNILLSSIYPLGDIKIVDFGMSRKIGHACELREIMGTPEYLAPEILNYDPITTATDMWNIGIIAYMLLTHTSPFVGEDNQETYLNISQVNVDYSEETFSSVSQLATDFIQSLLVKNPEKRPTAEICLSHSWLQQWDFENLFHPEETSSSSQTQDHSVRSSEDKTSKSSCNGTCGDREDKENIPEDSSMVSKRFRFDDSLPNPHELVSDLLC

[3] = target: T3, panel of 468 kinases (Homo sapiens, UniProt P07948); settings: LYN; 1 μM; read-out: % control
T3 construct: purchased KINOMEscan (ScanMAX) service
T3 sequence (P07948 whole entry): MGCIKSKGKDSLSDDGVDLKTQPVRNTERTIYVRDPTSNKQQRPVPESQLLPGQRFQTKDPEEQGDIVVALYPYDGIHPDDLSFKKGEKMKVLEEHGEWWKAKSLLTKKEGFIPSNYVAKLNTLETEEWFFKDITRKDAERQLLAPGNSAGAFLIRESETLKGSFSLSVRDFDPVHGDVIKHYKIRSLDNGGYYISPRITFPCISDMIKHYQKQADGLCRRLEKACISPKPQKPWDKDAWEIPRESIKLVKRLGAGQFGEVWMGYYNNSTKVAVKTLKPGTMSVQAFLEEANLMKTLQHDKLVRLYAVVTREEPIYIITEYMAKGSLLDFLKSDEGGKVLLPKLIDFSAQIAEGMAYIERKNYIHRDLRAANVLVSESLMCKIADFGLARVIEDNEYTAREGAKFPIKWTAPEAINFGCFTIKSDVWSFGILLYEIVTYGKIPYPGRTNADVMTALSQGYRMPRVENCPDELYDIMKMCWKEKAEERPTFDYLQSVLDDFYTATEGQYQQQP

[4] = target: T4, panel of 468 kinases (Homo sapiens, UniProt P50613); settings: CDK7; 1 μM; read-out: % control
T4 construct: purchased KINOMEscan (ScanMAX) service
T4 sequence (P50613 whole entry): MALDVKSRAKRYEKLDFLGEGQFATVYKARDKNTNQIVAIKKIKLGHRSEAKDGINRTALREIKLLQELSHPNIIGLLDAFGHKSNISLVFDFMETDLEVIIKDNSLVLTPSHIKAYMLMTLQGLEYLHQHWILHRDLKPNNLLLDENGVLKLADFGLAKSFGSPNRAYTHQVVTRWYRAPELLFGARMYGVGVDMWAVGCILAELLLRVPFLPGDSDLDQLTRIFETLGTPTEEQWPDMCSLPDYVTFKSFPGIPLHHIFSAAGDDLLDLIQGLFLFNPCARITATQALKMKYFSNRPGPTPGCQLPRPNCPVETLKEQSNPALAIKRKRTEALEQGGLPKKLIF

[5] = target: T5, panel of 468 kinases (Homo sapiens, UniProt Q6ZWH5); settings: NEK10; 1 μM; read-out: % control
T5 construct: purchased KINOMEscan (ScanMAX) service
T5 sequence (Q6ZWH5 1-1172): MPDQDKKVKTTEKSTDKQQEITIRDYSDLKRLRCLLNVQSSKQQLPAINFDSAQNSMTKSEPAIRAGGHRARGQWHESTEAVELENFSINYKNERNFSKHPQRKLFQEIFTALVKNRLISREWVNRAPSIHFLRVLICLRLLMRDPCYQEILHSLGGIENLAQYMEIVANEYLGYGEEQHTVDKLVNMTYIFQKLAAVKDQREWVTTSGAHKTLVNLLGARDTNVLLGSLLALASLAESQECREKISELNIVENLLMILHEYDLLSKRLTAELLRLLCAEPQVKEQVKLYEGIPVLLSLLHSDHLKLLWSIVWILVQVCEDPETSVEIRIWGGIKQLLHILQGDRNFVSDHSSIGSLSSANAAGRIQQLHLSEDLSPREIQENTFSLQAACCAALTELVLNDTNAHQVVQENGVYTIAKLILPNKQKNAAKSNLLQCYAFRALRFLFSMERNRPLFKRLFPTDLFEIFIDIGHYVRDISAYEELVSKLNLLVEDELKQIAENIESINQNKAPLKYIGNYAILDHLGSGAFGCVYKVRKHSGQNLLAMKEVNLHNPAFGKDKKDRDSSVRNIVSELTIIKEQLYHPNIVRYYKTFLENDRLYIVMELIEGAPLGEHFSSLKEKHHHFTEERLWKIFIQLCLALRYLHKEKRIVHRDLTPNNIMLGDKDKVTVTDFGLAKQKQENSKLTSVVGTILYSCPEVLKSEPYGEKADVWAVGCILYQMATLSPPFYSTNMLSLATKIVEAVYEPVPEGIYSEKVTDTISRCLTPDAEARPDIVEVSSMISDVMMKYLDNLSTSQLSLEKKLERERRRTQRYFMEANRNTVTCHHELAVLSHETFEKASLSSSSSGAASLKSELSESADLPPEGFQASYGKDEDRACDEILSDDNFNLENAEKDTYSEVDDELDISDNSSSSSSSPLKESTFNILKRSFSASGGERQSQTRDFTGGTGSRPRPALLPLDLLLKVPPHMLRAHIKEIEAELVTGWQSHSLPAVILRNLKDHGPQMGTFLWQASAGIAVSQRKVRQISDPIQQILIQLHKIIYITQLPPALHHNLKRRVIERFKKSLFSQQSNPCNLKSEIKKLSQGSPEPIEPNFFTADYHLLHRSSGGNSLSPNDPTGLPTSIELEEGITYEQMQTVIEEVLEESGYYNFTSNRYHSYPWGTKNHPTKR

[6] = target: T6, panel of 468 kinases (Homo sapiens, UniProt Q9HC98); settings: NEK6; 1 μM; read-out: % control
T6 construct: purchased KINOMEscan (ScanMAX) service
T6 sequence (Q9HC98 whole entry): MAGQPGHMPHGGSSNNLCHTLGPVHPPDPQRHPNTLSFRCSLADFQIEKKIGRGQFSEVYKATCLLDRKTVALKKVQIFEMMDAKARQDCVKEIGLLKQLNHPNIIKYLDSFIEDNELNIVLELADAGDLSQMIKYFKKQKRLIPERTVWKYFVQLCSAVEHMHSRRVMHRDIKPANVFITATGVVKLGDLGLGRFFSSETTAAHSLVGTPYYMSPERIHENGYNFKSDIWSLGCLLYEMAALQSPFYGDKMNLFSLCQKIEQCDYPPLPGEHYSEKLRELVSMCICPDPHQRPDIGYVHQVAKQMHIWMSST

SMILES	remaining binding at 1 µM [1] [%]	remaining binding at 1 µM [2] [%]	remaining binding at 1 µM [3] [%]	remaining binding at 1 µM [4] [%]	remaining binding at 1 µM [5] [%]	remaining binding at 1 µM [6] [%]
CNc1nc(Nc2ccc(S(=O)(=O)N3CCC(N4CCOCC4)CC3)cc2OC)nc2[nH]cc(Cl)c12 [Compound 12, 5-chloro-N2-(2-methoxy-4-((4-morpholinopiperidin-1-yl)sulfonyl)phenyl)-N4-methyl-7H-pyrrolo[2,3-d]pyrimidine-2,4-diamine]	76	74	100	98	63	100
CNc1nc(Nc2ccc(C(=O)N3CCC(N4CCOCC4)CC3)c3c2OCO3)nc2[nH]cc(Cl)c12 [Compound 75, (7-((5-chloro-4-(methylamino)-7H-pyrrolo[2,3-d]pyrimidin-2-yl)amino)benzo[d][1,3]dioxol-4-yl)(4-morpholinopiperidin-1-yl)methanone]	65	3.9	100	21	66	100
CNc1nc(Nc2ccc(P3(=O)CCN(C4CCOCC4)CC3)cc2OC)nc2[nH]cc(Cl)c12 [Compound 77, 4-(4-((5-chloro-4-(methylamino)-7H-pyrrolo[2,3-d]pyrimidin-2-yl)amino)-3-methoxyphenyl)-1-(tetrahydro-2H-pyran-4-yl)-1,4-azaphosphinane 4-oxide]	81	39	100	86	39	100
